Experiment: molar heat capacity at constant pressure; xn = mol fraction of the nth substance listed
Settings: 101 kPa, Liquid, Small sample (50 mg) DSC

CC1=CC[C@H]2C[C@@H]1C2(C)C [(S)-2-pinene] + C=C1CCC2CC1C2(C)C
molar heat capacity at constant pressure [J/K/mol]
Settings	x1 = 0.1002	x1 = 0.2041	x1 = 0.2997	x1 = 0.3922	x1 = 0.5012	x1 = 0.5907	x1 = 0.7026	x1 = 0.7987	x1 = 0.9002	x1 = 1
313.16 K	249.31	250.67	250.67	252.03	250.67	249.31	250.67	252.03	253.4	250.67
318.16 K	252.03	252.03	252.03	253.4	253.4	252.03	253.4	253.4	254.76	252.03
323.16 K	256.12	254.76	256.12	256.12	254.76	254.76	256.12	254.76	256.12	256.12
328.22 K	257.48	256.12	257.48	258.84	256.12	257.48	258.84	256.12	258.84	257.48
333.22 K	260.21	258.84	258.84	260.21	258.84	261.57	260.21	257.48	260.21	260.21
338.19 K	264.29	261.57	262.93	262.93	262.93	262.93	262.93	261.57	262.93	264.29
343.18 K	267.02	265.66	267.02	265.66	265.66	267.02	264.29	264.29	265.66	267.02
348.15 K	269.74	268.38	269.74	268.38	269.74	268.38	267.02	267.02	268.38	269.74
353.18 K	273.83	272.47	272.47	271.11	272.47	272.47	269.74	269.74	269.74	272.47
358.15 K	275.19	273.83	273.83	273.83	275.19	275.19	272.47	271.11	272.47	275.19
363.18 K	277.92	276.56	276.56	276.56	277.92	277.92	273.83	275.19	275.19	277.92
368.17 K	279.28	279.28	279.28	279.28	280.64	280.64	276.56	276.56	277.92	279.28
373.21 K	283.37	282	282	282	282	282	279.28	280.64	279.28	282
378.2 K	284.73	283.37	284.73	284.73	284.73	284.73	280.64	282	282	284.73
383.17 K	287.45	286.09	287.45	287.45	286.09	287.45	284.73	283.37	284.73	287.45
388.2 K	291.54	288.82	290.18	291.54	290.18	290.18	288.82	286.09	287.45	291.54
393.17 K	292.9	291.54	292.9	294.27	292.9	291.54	291.54	288.82	288.82	292.9
398.2 K	294.27	295.63	294.27	296.99	295.63	294.27	294.27	292.9	292.9	294.27
403.19 K	296.99	298.35	296.99	299.71	298.35	296.99	295.63	295.63	294.27	296.99
408.16 K	299.71	301.08	299.71	303.8	302.44	299.71	299.71	298.35	296.99	299.71
413.19 K	301.08	302.44	301.08	305.16	305.16	301.08	301.08	299.71	299.71	301.08
418.19 K	303.8	305.16	303.8	306.53	306.53	302.44	303.8	303.8	302.44	303.8
